# Source: a melting point compilation (Tetko et al.; mined from patent text by program, amines drawn as free bases though some values may be those of a salt)
row,melting point [°C],SMILES
1,94 to 95,O=C1CCCCC1C(=S)Nc1ccc(Br)cc1F (stereo not drawn)
2,192,NS(=O)(=O)C(Br)(Br)S(=O)(=O)c1ccc(Br)cc1
3,232 to 237,C=CC[C@H](C(N)=O)[C@@H](CC(C)C)C(=O)NC1N=C(N2CCCCCC2)c2ccccc2N(C)C1=O (stereo partly drawn)
4,114,CCOC(=O)CC(NC(=O)CNC(=O)c1csc(NC(=N)N)n1)c1cccnc1 (racemic)
5,225 to 232,O=C1CCSc2c(O)cccc21
6,151 to 152,CC(=O)NC[C@H]1CN(c2cc(F)c3c(c2)CCCCC3=O)C(=O)O1
7,112 to 114,CN(C#N)C(=O)CCC(=O)N(C)C#N
8,108 to 109,COCCOCCOCCn1c2ccc(C=O)cc2c2cc(C=O)ccc21
9,198 to 201,Cc1[nH]c(=O)n(-c2cc(C(=O)OC(C)C)c(Cl)cc2F)c(=O)c1Cl
10,134 to 135,Cc1oc(-c2ccc3ccccc3c2)nc1COc1ccc(CCCCn2cncn2)cc1
11,252 to 254,O=C(Cc1c[nH]c2ccccc12)Nc1cc2c(cn1)[nH]c1ccccc12
12,77,CCCCCCCCC#CCC#CCC#CCSCC(=O)NCCO
13,163 to 164,O=[N+]([O-])c1ccc(C2OCc3cc(Br)ccc3O2)cc1 (stereo not drawn)
14,123 to 124,COc1ccc(-c2coc3ccc(-c4nnc(SCc5cccc(C)c5)o4)cc23)cc1
15,208 to 209,Cc1c2c(nn1-c1ccccc1)c(Cl)nc1ccccc12
16,197 to 198,O=c1[nH]c2ccc([N+](=O)[O-])cc2c(O)c1[N+](=O)[O-]
17,72,CC(C#N)c1c(Cl)cc([N+](=O)[O-])cc1Cl (stereo not drawn)
18,290 to 293,COc1nc2ncccc2c2nc(S(=O)(=O)Nc3c(Cl)cccc3Cl)nn12
19,274 to 276,Cc1ccc(-c2[nH]c(-c3ccccc3)nc2C(=O)Nc2nc(-c3ccccc3)cs2)cc1
20,58 to 60,COC(=O)CCC(=O)OCC(C)(C)Oc1ccc2c(c1)CCc1c-2ccc2c1CCC2(C)C
21,78 to 80,CCOC(C)O[C@H]1C(=O)N[C@H]1c1ccccc1 (stereo partly drawn)
22,153,Cc1ccn(-c2nc(Cl)c([N+](=O)[O-])s2)n1

row,melting point [°C],SMILES
1,235,CCOC(=O)Nc1nc2cc(-c3cccnc3)cc(-c3ccccn3)c2s1
2,95 to 97,Cc1ccc(Oc2ccc(Br)cc2O)c(O)c1
3,80 to 105,Nc1cccc(-c2ccc(CCN3CCN(CCc4ccccc4)CC3)c3ccccc23)n1
4,225 to 227,Cc1cc(Nc2cc(-c3cccc(N4Cc5cc(C(C)(C)C)ccc5C4=O)c3CO)cn(C)c2=O)nn1C
5,205 to 207,Nc1ccc2c(ccn2C(=O)c2ccc(F)cc2)c1
6,185 to 187,Cc1cc(NCC(C)C)c([N+](=O)[O-])c2nnnn12
7,56 to 60,Clc1cccc(CC[C@H]2CN(Cc3ccccc3)CCN2Cc2ccccc2)c1
8,198 to 200,CNc1nc(-c2cccc(N(C)C(=O)c3ccccc3)c2)c2cc(OC)c(OC)cc2n1
9,209 to 211,O=C(NCCNC(=O)C1CCN(c2c(Cl)cncc2Cl)CC1)c1ccccc1
10,164 to 165,CC(C)N(CCN1C(=O)/C(=N/NC(=O)NCc2ccccc2)c2ccccc21)C(C)C
11,205 to 206,CC(C)[C@H](NC(=O)NCc1cccnc1)C(=O)NC(Cc1ccccc1)C(O)C(Cc1ccccc1)NC(=O)[C@@H](NC(=O)OCc1ccccc1)C(C)C (stereo partly drawn)
12,140 to 142,CC1(C)CC(CNS(=O)(=O)c2ccc(Cl)cc2)(Cc2ccc(CC(=O)O)cc2)C1
13,199,Cn1cc(S(C)=O)c(=O)c2sccc21 (stereo not drawn)
14,78 to 80,CC(=NO)C(=O)c1ccccc1OCc1ccccc1
15,202 to 203,CC(=O)N1CCN(c2nc(N)ccc2[N+](=O)[O-])CC1
16,175 to 177,O=S(=O)(c1cccc2ccccc12)c1n[nH]c2ccc(OCC3CCNCC3)cc12
17,97,Fc1cccc2c(CCCc3ccc(Cl)cc3)ccnc12
18,199 to 200,CC(=O)NC[C@H]1CN(c2ccc(-c3ncno3)c(F)c2)C(=O)O1
19,28.6 to 30.6,CCCCCCCCCCCCCCC(OC)C(=O)OC (stereo not drawn)
20,> 250,O=C1NCCn2c1nc1ccccc12
21,110 to 113,COc1ccc(C(=O)c2cccc([N+](=O)[O-])c2C)cc1

# More lines, now with the values behind:
row,SMILES,melting point [°C]
1,N=C(N)c1ccc(C(=O)Nc2ccc(Nc3cc(-c4cccc5c4oc4ccccc45)ncn3)cc2)cc1,213 to 219
2,CNc1nc(O)nc2c(Cl)cc(OC)c(OC)c12,219 to 221
3,Nc1cccc(Nc2nccc(-c3cccnc3)n2)c1,89 to 90
4,O=C(Nc1ccc(-n2nc(-c3ccoc3)cc2Cl)cc1)c1ccncc1F,165 to 166
5,O=C(O)c1cccc2cc3ccccc3cc12,245
6,O=S(=O)(c1cccc(-c2cc(-c3nc(-c4ccc(C(F)(F)F)cc4)cc(C(F)(F)F)n3)ccn2)c1)N1CCOCC1,202
7,Cc1c(-c2ccccc2)sc2nc(Nc3ccccc3)[nH]c(=O)c12,270 to 290
8,CCOC(=O)c1cc2c3n(ccc-2n1)C(Br)C=N3 (stereo not drawn),280 to 282
9,O=c1oc2cccnc2n1CCN1CCN(c2cccc(C(F)(F)F)c2)CC1,92 to 93
10,CCCCc1noc(-c2ncn3c2[C@@H]2CCCN2C(=O)c2c(Cl)cccc2-3)n1,181 to 182
11,CNc1ncnc(NCc2c(F)cccc2Cl)c1N,210 to 213
12,CCOP(=O)(Cc1ccc(C(N)=O)cc1)OCC,177 to 178
13,COC(=O)c1cc(=O)c2cc(OC)c(=O)ccc2n1C,181 to 183
14,Cc1cc2oc(=O)c3c(c2cc1NC(=O)c1ccccc1)CCN(CCN1CC2CCC(CC2)C1)C3,174 to 176
15,CCCNCc1cnc2c(C)c(NC(=O)c3ccc(OC[C@@H]4CCCO4)cc3F)ccc2c1,120 to 121
16,Cc1c(C(F)(F)F)cnc(O)c1Cl,204 to 205
17,O=C(CCCl)Nc1ccc2[nH]ncc2c1,158 to 160
18,O=C(O)c1ccc2c(=O)n3nc(C(=O)O)ccc3nc2c1,> 360
19,O=c1c2ccccc2n(SC(Cl)(Cl)Cl)c(=O)n1SC(Cl)(Cl)Cl,154 to 156
20,CC(C)(C)c1cnnc(NN)n1,117 to 118
21,C=CCOC(=O)C(=[N+]=[N-])C(=O)CC1CC(=O)N1 (stereo not drawn),83
22,Cc1nc2c(N)nc3cccnc3c2n1CC1(O)CCN(S(C)(=O)=O)CC1,> 255
23,Cc1cnc2c(NC(=O)c3c(Cl)cccc3Cl)cccc2c1-n1ccnc1,224 to 228
24,CC12CC(C)(C1)C(=O)N(C(C)(C)C)C2=O,65 to 65.5
25,N#Cc1nn(-c2c(Cl)cc(C(F)(F)F)cc2Cl)c(N)c1C#CCO,237 to 239
26,COc1ccc(N2CCN(c3c(C)c(C)c4c(c3C)C(O)C(C)(C)O4)CC2)cc1 (stereo not drawn),159 to 161
27,O=C(O)Cc1ccc2c(c1)sc1cc(Cl)ccc12,198 to 200
28,CCCCCCCCCCCCCCCCCCNC(=O)OCC(CN(C(C)=O)S(=O)(=O)CCCI)NC(C)=O (stereo not drawn),118 to 119
29,CCCCOc1ccc(S(C)(=O)=O)cc1C(=O)Nc1c(C(N)=O)nn(CCN2CCOCC2)c1CC,182 to 185
30,O=C(Nc1ccc(Cl)nc1)c1cc2cc(F)ccc2n1Cc1ccncc1,244 to 246
